Test results taken from patent US20160166560A1, “Urea Compounds and Their Use as FAAH Enzyme Inhibitors” (BIAL-PORTELA & Cª, S.A., priority 2013, published 2016).
Structures can show the parent of a compound that is named as a salt.

What was measured:
CYPs = CYPs metabolic stability assay in HLM (human liver microsomes); type: in vitro ADME; conditions: HLM 1 mg/ml protein, compound 5 μM, 60 min, 37° C.; for Control (% remain): absence of NADPH; for CYP+ (% remain): with NADPH 1 mM
Method: Stability of the test compounds was performed in HLM (human liver microsomes) in the presence and in the absence of NADPH.
The stability was measured using the incubation mixture (100 μl total volume) contained 1 mg/ml total protein, MgCl2 5 mM and 50 mM K-phosphate buffer. Samples were incubated in the presence and in the absence of NADPH 1 mM. Reactions were pre-incubated 5 min and the reaction initiated with the compound under test (at a concentration of 5 μM). Samples were incubated for 60 min in a shaking water bath at 37° C. The reaction was stopped by adding 100 μl of acetonitrile. Samples were then centrifuged, filtered and supematant injected in HLPC-MSD. Test compounds were dissolved in DMSO and the final concentration of DMSO in the reaction was below 0.5% (v/v). At T0 acetonitrile was added before adding the compound. All experiments were performed with samples in duplicate.

FAAH [1] = target: T1, FAAH (Mus musculus, UniProt O08914); assay: In vitro/ex vivo FAAH activity determination in brain after intra-tracheal instillation; parameters: Liver and brain fragments were removed and processed for enzymatic activity determination; from tissue; species or system male NMRI mice; conditions: remaining enzymatic activity vs controls, 1 mg/kg intra-tracheal instillation, sacrificed after 8 h
T1 sequence (O08914 1-579): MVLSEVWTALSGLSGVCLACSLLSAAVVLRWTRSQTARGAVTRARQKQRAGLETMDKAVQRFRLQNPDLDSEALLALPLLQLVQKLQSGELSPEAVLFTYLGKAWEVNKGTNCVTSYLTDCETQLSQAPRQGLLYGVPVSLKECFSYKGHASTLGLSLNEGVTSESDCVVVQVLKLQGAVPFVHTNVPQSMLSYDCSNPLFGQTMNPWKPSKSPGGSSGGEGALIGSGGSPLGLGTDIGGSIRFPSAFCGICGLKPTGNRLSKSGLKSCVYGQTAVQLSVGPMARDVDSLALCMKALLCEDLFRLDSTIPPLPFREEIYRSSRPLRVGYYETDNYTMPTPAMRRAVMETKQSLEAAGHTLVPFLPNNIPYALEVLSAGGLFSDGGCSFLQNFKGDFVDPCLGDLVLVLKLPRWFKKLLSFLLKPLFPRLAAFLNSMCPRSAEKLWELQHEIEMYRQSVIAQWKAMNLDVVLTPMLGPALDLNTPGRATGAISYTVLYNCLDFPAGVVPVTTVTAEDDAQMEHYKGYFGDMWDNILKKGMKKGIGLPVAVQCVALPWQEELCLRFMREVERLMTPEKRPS
Method: (§1) To evaluate the selectivity of test compounds in inhibiting FAAH activity, male NMRI mice were administrated following instillation with 1 mg/kg compound and were sacrificed after 8 h treatment. Liver and brain fragments were removed and processed for enzymatic activity determination.
(§2) FAAH activity was measured as the amount of ^3H-ethanolamine formed, by liquid scintillation counting, from the hydrolysis of the substrate anandamide (AEA, labeled with ^3H on the ethanolamine part of the molecule). The percentage of remaining enzymatic activity was calculated in respect to controls and after blank subtraction. Therefore, a low value for the test compounds indicates a strong inhibitor.
(§3) Male NMRI mice (body weight range: 25-35 g) were obtained from Harlan Laboratories (Barcelona, Spain). Animals were kept 10 per cage, under controlled environmental conditions (12 hr light [8 am]/12 hr dark [8 pm]cycle; room temperature 22±1° C.). Food and tap water were allowed ad libitum. Animals were habituated to the animal facilities at least for a week prior to experiments. The experiments were all carried out during daylight hours.
(§4) Animals were fasted overnight before administration of compounds. […] After administration the animals were given atipamezole (1 mg/kg) to reverse the sedative and analgesic effects induced by the anaesthesia.
(§5) Fifteen minutes before sacrifice, animals were anesthetized with pentobarbital 60 mg/kg administrated intra-peritoneally. The brain (without cerebellum) and a fragment of liver were collected into plastic vials containing membrane buffer (3 mM MgCl2, 1 mM EDTA, 50 mM Tris HCl, pH 7.4). Glass beads (2.5 mm BioSpec Products, Bartlesville, Okla., USA) were added to the vials containing the brain and liver tissues. Tissues were stored at −20° C. until analysis.
(§6) Anandamide [ethanolamine-1-^3H-] was obtained from American Radiochemicals—with a specific activity of 60 Ci/mmol. All other reagents were obtained from Sigma-Aldrich. Optiphase Supermix was obtained from Perkin Elmer.
(§7) Brain and liver tissues were thawed and homogenized in 10 volumes of membrane buffer (3 mM MgCl2, 1 mM EDTA, 50 mM Tris HCl, pH 7.4) with homogenizer Precellys 24 Dual Tissue Homogenizer (Bertin Technologies) for 2 cycles of 5 sec (5000 rpm).
(§8) Total protein in the tissue homogenates was determined with the BioRad Protein Assay (BioRad) using a standard curve of BSA ([…]). Tissue homogenates were diluted to appropriate concentration for enzymatic determination in assay buffer (1 mM EDTA, 10 mM Tris HCl, pH 7.6).
(§9) Reaction mix (total volume 200 μL) contained 2 μM AEA (2 μM AEA+5 nM ^3H-AEA), 0.1% fatty acid free BSA, 15 μg (brain) or 5 μg (liver) protein, in assay buffer (1 mM EDTA, 10 mM Tris pH 7.6).
(§10) The test compound was used at a level of 1 mg/kg protein. After 15 minutes pre-incubation at 37° C. of the protein sample, reaction was started by the addition of the substrate solution (cold AEA+radiolabelled AEA+BSA). Reaction was carried out for 12 minutes for brain and liver tissues. Reaction was terminated by addition of 400 μL chloroform:methanol (1:1, v/v) solution. Reaction samples were vortex twice, left on ice for 5 minutes and then centrifuged in the microfuge for 7 minutes, 7000 rpm. 200 μL of the obtained supernatants were added to […] Optiphase Supermix scintillation cocktail previously distributed in 24-well plates.
(§11) Counts per minute (cpm) were determined in a Microbeta TriLux scintillation counter. In each assay blank samples (without protein) were prepared.

FAAH [2] = target: T1, FAAH; assay: In vitro/ex vivo FAAH activity determination in liver after intra-tracheal instillation; parameters: Liver and brain fragments were removed and processed for enzymatic activity determination; from tissue; host or cells: mouse liver fragment homogenate; species or system male NMRI mice; conditions: remaining enzymatic activity vs controls, 1 mg/kg intra-tracheal instillation, sacrificed after 8 h
Method: as §1, §2, §3, §4, §5, §6, §7, §8, §9, §10, §11

Row | SMILES | Control (% remain) (CYPs) | CYP+ (% remain) (CYPs) | FAAH Activity - Brain itc (% C) (FAAH [1]) | FAAH Activity - Liver itc (% C) (FAAH [2]) | FAAH Activity - Brain itc (% C) (FAAH [1]; maleate, 1 mg/kg) | FAAH Activity - Liver itc (% C) (FAAH [2]; maleate, 1 mg/kg) | FAAH Activity - Brain itc (% C) (FAAH [1]; methanesulfonate, 1 mg/kg) | FAAH Activity - Liver itc (% C) (FAAH [2]; methanesulfonate, 1 mg/kg)
1 | CN(C(=O)n1cnc(-c2cccc(NS(C)(=O)=O)c2)c1)C1CCN(Cc2ccccc2)CC1 [Example 1, N-(1-benzylpiperidin-4-yl)-N-methyl-4-(3-(methylsulfonamido)phenyl)-1H-imidazole-1-carboxamide hydrochloride] | 111.4 | 30.2 | 79.0 | 3.2 |  |  |  | 
2 | CN(C(=O)n1cnc(-c2cccc(NS(N)(=O)=O)c2)c1)C1CCN(Cc2ccccc2)CC1 [Example 2, N-(1-benzylpiperidin-4-yl)-N-methyl-4-(3-(sulfamoylamino)phenyl)-1H-imidazole-1-carboxamide hydrochloride] | 98.3 | 68.6 | 86.8 | 5.1 |  |  |  | 
3 | COc1cccc(CN2CCC(N(C)C(=O)n3cnc(-c4cccc(NS(C)(=O)=O)c4)c3)CC2)c1 [Example 4, N-(1-(3-methoxybenzyl)piperidin-4-yl)-N-methyl-4-(3-(methylsulfonamido)phenyl)-1H-imidazole-1-carboxamide hydrochloride] | 100 | 11.2 | 98.7 | 7.2 |  |  |  | 
4 | COc1ccc(CN2CCC(N(C)C(=O)n3cnc(-c4cccc(NS(C)(=O)=O)c4)c3)CC2)cc1OC [Example 5, N-(1-(3,4-dimethoxybenzyl)piperidin-4-yl)-N-methyl-4-(3-(methylsulfonamido)phenyl)-1H-imidazole-1-carboxamide hydrochloride] | 100 | 77.3 | 104.7 | 5.7 |  |  |  | 
5 | CN(C(=O)n1cnc(-c2cccc(OS(N)(=O)=O)c2)c1)C1CCN(c2ccccc2)CC1 [Example 6, 3-(1-(methyl(1-phenylpiperidin-4-yl)carbamoyl)-1H-imidazol-4-yl)phenyl sulfamate hydrochloride] | 88.7 | 12.0 | 82.1 | 1.7 |  |  |  | 
6 | CN(C(=O)n1cnc(-c2cccc(OS(N)(=O)=O)c2)c1)C1CCN(Cc2ccccc2)CC1 [Example 7, 3-(1-((1-benzylpiperidin-4-yl)(methyl)carbamoyl)-1H-imidazol-4-yl)phenyl sulfamate hydrochloride] | 92.6 | 65.0 | 87.2 | 3.5 |  |  |  | 
7 | COc1cccc(CN2CCC(N(C)C(=O)n3cnc(-c4cccc(C(N)=O)c4)c3)CC2)c1 [Example 13, 4-(3-carbamoylphenyl)-N-(1-(3-methoxybenzyl)piperidin-4-yl)-N-methyl-1H-imidazole-1-carboxamide hydrochloride] | 103.5 | 25.1 |  |  |  |  |  | 
8 | COc1cc(CN2CCC(N(C)C(=O)n3cnc(-c4ccc(OS(N)(=O)=O)cc4)c3)CC2)cc(OC)c1 [Example 19, 4-(1-((1-(3,5-dimethoxybenzyl)piperidin-4-yl)(methyl)carbamoyl)-1H-imidazol-4-yl)phenyl sulfamate maleate] |  |  |  |  | 99.2 | 9.2 |  | 
9 | COc1cccc(CN2CCC(N(C)C(=O)n3cnc(-c4cccc(NS(N)(=O)=O)c4)c3)CC2)c1.O=C(O)/C=C\C(=O)O.O=C(O)/C=C\C(=O)O [Example 20, N-(1-(3-methoxybenzyl)piperidin-4-yl)-N-methyl-4-(3-(sulfamoylamino)phenyl)-1H-imidazole-1-carboxamide dimaleate] |  |  | 86.4 | 15.8 |  |  |  | 
10 | CN(C(=O)n1cnc(-c2cccc(NC(N)=O)c2)c1)C1CCN(Cc2ccccc2)CC1 [Example 22, N-(1-benzylpiperidin-4-yl)-N-methyl-4-(3-ureidophenyl)-1H-imidazole-1-carboxamide methanesulfonate] |  |  |  |  |  |  | 113.8 | 10.7
11 | CN(C(=O)n1cnc(-c2cccc(C(N)=O)c2)c1)C1CCN(Cc2ccccc2O)CC1 [Example 36, 4-(3-carbamoylphenyl)-N-(1-(2-hydroxybenzyl)piperidin-4-yl)-N-methyl-1 H-imidazole-1-carboxamide hydrochloride] |  |  | 94.4 | 8.6 |  |  |  | 
12 | CN(C(=O)n1cnc(-c2cccc(C(N)=O)c2)c1)C1CCN(c2ccccc2O)CC1 [Example 37, 4-(3-carbamoylphenyl)-N-(1-(2-hydroxyphenyl)piperidin-4-yl)-N-methyl-1H-imidazole-1-carboxamide hydrochloride] |  |  | 110.2 | 3.4 |  |  |  | 
13 | COc1ccccc1CN1CCC(N(C)C(=O)n2cnc(-c3cccc(C(N)=O)c3)c2)CC1 [Example 38, 4-(3-carbamoylphenyl)-N-(1-(2-methoxybenzyl)piperidin-4-yl)-N-methyl-1H-imidazole-1-carboxamide hydrochloride] |  |  | 96.5 | 6.0 |  |  |  | 
